Consider five molecules from US20130022620A1, “ASSAYS AND METHODS PERTAINING TO PRE-AMYLOID INTERMEDIATES” (priority 2011, published 2013).

Data set [1] can be described thus: Thioflavin-T kinetics and TEM of amyloid formation by IAPP peptides. Format: physicochemical. As to the method:
Thioflavin-T fluorescence was used to monitor the time course of h-IAPP amyloid formation in the presence and absence of sRAGE. To identify which form(s) of h-IAPP interact with RAGE, sRAGE was added to h-IAPP at various time points during the h-IAPP amyloid formation reaction. Aliquots of the reaction mixture were analyzed by adding 100 uL aliquots of the amyloid formation reaction to 96-well plates containing 8 uL of 60 uM thioflavin-T solution at various incubation times after initiation of the amyloid formation reaction. Fluorescence was measured using a Beckman Coulter DTX880 fluorescent plate reader (excitation: 445 nm and emission: 485 nm). Final solution conditions contained 16 mM tris HCl and […] thioflavin-T (pH 7.4). […] All values represent means±SEM (n=3).
Transient kinetic species of h-IAPP were characterized by TEM. TEM images confirm the presence or absence of amyloid which were indicated by thioflavin-T fluorescence. Aliquots (4 μl) were removed from the reaction mixtures monitored by thioflavin-T assays, placed on a carbon-coated 200-mesh copper grid and negatively stained with saturated uranyl acetate. The samples were imaged with a Philips CM12 transmission electron microscope at the New York University electron microscopy core facility. Final solution conditions contained 16 mM tris HCl (pH 7.4).

A further data set deals with rat INS-1 β-cells. The data set is described as follows: AlamarBlue cell viability assay of β-cells. The conditions noted are these: for onset and duration of toxicity compared to wild type: side-by-side with kinetics, 20 uM for the Ser-20 mutants. Format: cell-based. On the procedure:
Transformed rat insulinoma-1 (INS-1) β-cells (which express RAGE) are a pancreatic beta cell line commonly used for studies of h-IAPP induced toxicity. INS-1 cells were grown in RPMI 1640 supplemented with 10% fetal bovine serum (FBS), 11 mM glucose, 10 mM Hepes, 2 mM L-glutamine, 1 mM sodium pyruvate, 50 μM β-mercaptoethanol, 100 U/ml penicillin, and […] streptomycin. Cells were maintained at 37° C./5% CO2.
Cyto-toxicity was measured by AlamarBlue assay. INS-1 β-cells were seeded at a density of 30,000 cells per well in 96-well plates and cultured for 24 hours prior to stimulation with IAPP. Human and rat IAPP were dissolved and incubated in 16 mM tris HCl (pH 7.4, 25° C.) prior to cell stimulation. AlamarBlue was diluted ten-fold in culture media and cells were incubated for 5 hours at 37° C. Fluorescence (excitation 530; emission 590 nm) was measured on a Beckman Coulter DTX880 fluorescent plate reader. Values calculated were relative to those of control cells treated with buffer only. All values represent means±SEM (n=3).
Changes in cell morphology were examined by light microscopy to provide a second method of evaluating cell viability. Transformed rat INS-1 beta cells were photographed immediately prior to assessment of toxicity by Alamar blue cell viability assays. Images were taken using an Olympus BX-61 light microscope.
(In general: Resazurin is reduced to fluorescent resorufin, in cell work by metabolically active cells.)

The subject of data set [2] is MCP-1 and IL-1β mRNA expression. Nature of the data set: qRT-PCR of MCP-1 and IL-1β mRNA in β-cells. It counts as cell-based, rat. The note with it: β-cells stimulated with peptide. On the procedure:
(§1) Assays for qRT-PCR were carried out in 6-well plates. Total cellular RNA was isolated from h-IAPP stimulated β-cells using Qiagen RNA isolation kit, and the quality of RNA samples was determined by measurement of 260:280 ratio. Only samples with a 260:280 ratio of 2.0 or higher were used for reverse transcription. RNA samples were also treated by RNAse-free DNAse to avoid genomic DNA contamination. One microgram of RNA from each sample was reverse-transcribed to cDNA using MCP-1 and IL-1β primers. Non-template negative controls were also performed to monitor non-specific reactions. RNA isolated from rat IAPP and non-h-IAPP treated beta cells were used as negative controls. Equal amounts of RNA were used in each qRT-PCR reaction, and 18S was used as the internal control for amplification at the same time. qRT-PCR reactions were carried out using an Applied Biosystems 7500 RealTime PCR machine. The relative mRNA contents were normalized using 18S and quantification was carried out using qRT-PCR Quantifier Software.

Data set [3] deals with T1, sRAGE (Homo sapiens, UniProt Q15109).
T1 construct: the soluble extracellular domain of RAGE (sRAGE); made in house; host or cells: Sf9 insect cells (baculovirus)
Nature of the data set: Tryptophan fluorescence quenching assay of sRAGE binding. The conditions noted are these: sRAGE added at different time points of the reaction, 1:1 molar ratio. An excerpt:
The quenching of tryptophan fluorescence indicates binding. Fluorescence measurements were made at right angle in a […] dual path length quartz cuvette, using a Photon Technology International fluorescent spectrometer (280 nm excitation and 350 nm emission). Background fluorescence from buffer and IAPP peptides were negligible. The fluorescence quantum yield reported for each time point is an average of 20 reads over 20 seconds (2.5 nm bandwidth and 1 second integration time). Final solution conditions contained 16 mM tris HCl (pH 7.4).

Data set [4] has as its system MCP-1 and IL-1β mRNA expression. The data set is described as follows: qRT-PCR of MCP-1 and IL-1β mRNA in smooth muscle cells. The conditions noted are these: peptide stimulation. It counts as cell-based, mouse. On the procedure: Mouse vascular SMCs were cultured from the aortas of 10-week-old male mice using a modification of the procedure of Tarvo and Barret. See Tarvo et al. Blood Vessels. 1980; 17:110-116. SMCs were cultured following an explant protocol in accordance with institutional guidelines. Cultures were composed of 95% SM-α-actin positivity based on immunostaining.
as §1

Data set [5] deals with T1, sRAGE. The data set is described as follows: Difference CD of IAPP peptides with sRAGE. The conditions noted are these: end point of the reactions. Format: binding. As to the method:
CD measurements of IAPP, sRAGE and IAPP/sRAGE reactions were taken at various incubation times. Far-UV CD experiments monitor the development of secondary structure of h-IAPP species and give insight into the conformational requirement for IAPP/RAGE-binding. All CD experiments were performed on an Applied Photophysics circular dichroism spectrophotometer by directly transferring 300 μL of peptide solution from kinetic assays into a 0.1 cm quartz cuvette a few minutes prior to data collection. The CD spectra for sRAGE and tris HCl buffer was subtracted from all RAGE/IAPP mixtures. The final far-UV CD data was collected over the range of 190 to 260 nm. Final solution conditions contained 16 mM tris HCl (pH 7.4).

Data set [6] addresses T2, soluble RAGE (sRAGE), soluble extracellular domain of the receptor for advanced glycation endproducts (human, UniProt Q15109 23-342, glycosylated (heterogeneity in GlcN and GlcNAc glycosylation by MALDI-TOF)).
T2 construct: The purification protocol gives two species, full length (36,254 Da) and C-truncated (34,710 Da); also called human sRAGE
The data set is described as follows: tryptophan fluorescence quenching; sRAGE added at different time points of the aggregation reaction.

Data set [7] deals with T2, soluble RAGE (sRAGE), soluble …. The data set is described as follows: tryptophan fluorescence quenching. An excerpt:
(E) Trp fluorescence quenching experiments.
Binding of ligands to this region should alter the environment of the tryptophans and lead to a change in their fluorescent quantum yield. Thus, the quenching of tryptophan fluorescence can be used to monitor binding.

Positions of bridges follow the written chain, without caps; N, C: chain ends. No end group written: not given here.

T2 sequence (Q15109 23-342): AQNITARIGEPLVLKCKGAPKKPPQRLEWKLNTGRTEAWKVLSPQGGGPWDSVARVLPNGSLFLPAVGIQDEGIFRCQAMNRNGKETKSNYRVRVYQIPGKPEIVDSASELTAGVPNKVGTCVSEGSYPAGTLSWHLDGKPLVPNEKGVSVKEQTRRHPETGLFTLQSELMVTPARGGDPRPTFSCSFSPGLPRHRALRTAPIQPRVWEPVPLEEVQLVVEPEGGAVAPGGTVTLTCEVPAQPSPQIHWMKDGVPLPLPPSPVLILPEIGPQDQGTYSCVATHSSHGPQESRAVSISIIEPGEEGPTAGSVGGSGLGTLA
T1 sequence (Q15109 23-342): as above

As for “3×L-IAPP: h-IAPP triple mutant in which leucines replaced F15, F23 and Y37 (KCNTATCATQRLANLLVHSSNNLGAILSSTNVGSNTL-NH2; disulfide 2-7; N-terminus assumed; SMILES CC[C@H](C)[C@H](NC(=O)[C@H](C)NC(=O)CNC(=O)[C@H](CC(C)C)NC(=O)[C@H](CC(N)=O)NC(=O)[C@H](CC(N)=O)NC(=O)[C@H](CO)NC(=O)[C@H](CO)NC(=O)[C@H](Cc1c[nH]cn1)NC(=O)[C@@H](NC(=O)[C@H](CC(C)C)NC(=O)[C@H](CC(C)C)NC(=O)[C@H](CC(N)=O)NC(=O)[C@H](C)NC(=O)[C@H](CC(C)C)NC(=O)[C@H](CCCNC(=N)N)NC(=O)[C@H](CCC(N)=O)NC(=O)[C@@H](NC(=O)[C@H](C)NC(=O)[C@@H]1CSSC[C@H](NC(=O)[C@@H](N)CCCCN)C(=O)N[C@@H](CC(N)=O)C(=O)N[C@@H]([C@@H](C)O)C(=O)N[C@@H](C)C(=O)N[C@@H]([C@@H](C)O)C(=O)N1)[C@@H](C)O)C(C)C)C(=O)N[C@@H](CC(C)C)C(=O)N[C@@H](CO)C(=O)N[C@@H](CO)C(=O)N[C@H](C(=O)N[C@@H](CC(N)=O)C(=O)N[C@H](C(=O)NCC(=O)N[C@@H](CO)C(=O)N[C@@H](CC(N)=O)C(=O)N[C@H](C(=O)N[C@@H](CC(C)C)C(N)=O)[C@@H](C)O)C(C)C)[C@@H](C)O; UniProt P10997 34-70, looked up, variant F15L F23L Y37L)”, the “amyloid formation, slower than wild type” value in data set [1] (triple mutant, leucines at positions 15, 23 and 37) is recorded as 6 fold. Further, in the data set on rat INS-1 β-cells, the “onset and duration of toxicity compared to wild type” value is “longer duration of toxicity than observed with wild type”.

With “S20K-IAPP: h-IAPP with Ser-20 substituted by lysine (KCNTATCATQRLANFLVHSKNNFGAILSSTNVGSNTY-NH2; disulfide 2-7; N-terminus assumed; SMILES CC[C@H](C)[C@H](NC(=O)[C@H](C)NC(=O)CNC(=O)[C@H](Cc1ccccc1)NC(=O)[C@H](CC(N)=O)NC(=O)[C@H](CC(N)=O)NC(=O)[C@H](CCCCN)NC(=O)[C@H](CO)NC(=O)[C@H](Cc1c[nH]cn1)NC(=O)[C@@H](NC(=O)[C@H](CC(C)C)NC(=O)[C@H](Cc1ccccc1)NC(=O)[C@H](CC(N)=O)NC(=O)[C@H](C)NC(=O)[C@H](CC(C)C)NC(=O)[C@H](CCCNC(=N)N)NC(=O)[C@H](CCC(N)=O)NC(=O)[C@@H](NC(=O)[C@H](C)NC(=O)[C@@H]1CSSC[C@H](NC(=O)[C@@H](N)CCCCN)C(=O)N[C@@H](CC(N)=O)C(=O)N[C@@H]([C@@H](C)O)C(=O)N[C@@H](C)C(=O)N[C@@H]([C@@H](C)O)C(=O)N1)[C@@H](C)O)C(C)C)C(=O)N[C@@H](CC(C)C)C(=O)N[C@@H](CO)C(=O)N[C@@H](CO)C(=O)N[C@H](C(=O)N[C@@H](CC(N)=O)C(=O)N[C@H](C(=O)NCC(=O)N[C@@H](CO)C(=O)N[C@@H](CC(N)=O)C(=O)N[C@H](C(=O)N[C@@H](Cc1ccc(O)cc1)C(N)=O)[C@@H](C)O)C(C)C)[C@@H](C)O; UniProt P10997 34-70, looked up, variant S20K)”, in data set [1] (20 uM, pH 7.4 25° C.), the “rate of aggregation compared to wild type” value was “slower aggregation rate”. Further, the “onset and duration of toxicity compared to wild type” value in the data set on rat INS-1 β-cells was “shifts the onset of toxicity to later time points and increases its duration”.

Consider “rat IAPP: non-amyloidogenic, non-toxic rat IAPP used as negative control”, for which the “MCP-1 and IL-1β mRNA expression” value in data set [2] is “does not induce up-regulation”. Also, the “amyloid formation (thioflavin-T)” value in data set [1] (peptide by itself) is listed as “does not form amyloid at any time point”. In the data set with sRAGE [3], the “binding to sRAGE (tryptophan fluorescence quenching)” value was “No binding”. Also, the “MCP-1 and IL-1β mRNA expression in smooth muscle cells” value in data set [4] is “rat IAPP does not”. In addition, in the data set with sRAGE [5], the “interaction with sRAGE (difference CD)” value is “does not interact”. In addition, the “cell toxicity (AlamarBlue cell viability, light microscopy)” value in the data set on rat INS-1 β-cells (peptide incubated in buffer at room temperature for various times, then applied to INS-1 β-cells) is reported as “No toxicity was observed at any time point”.

B1: I26P-IAPP (I26P point mutant of human IAPP) (peptide)
peptide: KCNTATCATQRLANFLVHSSNNFGAPLSSTNVGSNTY-NH2
modifications: disulfide 2-7; N-terminus assumed
SMILES: CC(C)C[C@H](NC(=O)[C@H](CCCNC(=N)N)NC(=O)[C@H](CCC(N)=O)NC(=O)[C@@H](NC(=O)[C@H](C)NC(=O)[C@@H]1CSSC[C@H](NC(=O)[C@@H](N)CCCCN)C(=O)N[C@@H](CC(N)=O)C(=O)N[C@@H]([C@@H](C)O)C(=O)N[C@@H](C)C(=O)N[C@@H]([C@@H](C)O)C(=O)N1)[C@@H](C)O)C(=O)N[C@@H](C)C(=O)N[C@@H](CC(N)=O)C(=O)N[C@@H](Cc1ccccc1)C(=O)N[C@@H](CC(C)C)C(=O)N[C@H](C(=O)N[C@@H](Cc1c[nH]cn1)C(=O)N[C@@H](CO)C(=O)N[C@@H](CO)C(=O)N[C@@H](CC(N)=O)C(=O)N[C@@H](CC(N)=O)C(=O)N[C@@H](Cc1ccccc1)C(=O)NCC(=O)N[C@@H](C)C(=O)N1CCC[C@H]1C(=O)N[C@@H](CC(C)C)C(=O)N[C@@H](CO)C(=O)N[C@@H](CO)C(=O)N[C@H](C(=O)N[C@@H](CC(N)=O)C(=O)N[C@H](C(=O)NCC(=O)N[C@@H](CO)C(=O)N[C@@H](CC(N)=O)C(=O)N[C@H](C(=O)N[C@@H](Cc1ccc(O)cc1)C(N)=O)[C@@H](C)O)C(C)C)[C@@H](C)O)C(C)C
notes: also called nontoxic, aggregation-prone I26P-IAPP variant of h-IAPP
Turning to B1, in data set [6], the binding result is “no binding”.

B2: rat IAPP (peptide, UniProt P12969 38-74, looked up)
peptide: KCNTATCATQRLANFLVRSSNNLGPVLPPTNVGSNTY-NH2
modifications: disulfide 2-7
notes: mature; also called non-toxic rat IAPP; non-amyloidogenic rat IAPP
Turning to B2, the binding result in data set [7] is “no binding (tested: 20 µM rat IAPP, 1:1 molar ratio)”.
